Results from ChEMBL document CHEMBL5465560, “Selectivity Literature for EUbOPEN Chemogenomic Library” (2024).
Each block holds one compound with its values, some of them ahead of it.

How the values were obtained:
[1] = biological target: T1, Mitogen-activated protein kinase kinase kinase 5 (Homo sapiens) (UniProt Q99683); test: Selectivity interaction (KinomeScan (DiscoverX)) EUB0000090b MAP3K5; conditions: at 1 µM
T1 sequence (whole entry): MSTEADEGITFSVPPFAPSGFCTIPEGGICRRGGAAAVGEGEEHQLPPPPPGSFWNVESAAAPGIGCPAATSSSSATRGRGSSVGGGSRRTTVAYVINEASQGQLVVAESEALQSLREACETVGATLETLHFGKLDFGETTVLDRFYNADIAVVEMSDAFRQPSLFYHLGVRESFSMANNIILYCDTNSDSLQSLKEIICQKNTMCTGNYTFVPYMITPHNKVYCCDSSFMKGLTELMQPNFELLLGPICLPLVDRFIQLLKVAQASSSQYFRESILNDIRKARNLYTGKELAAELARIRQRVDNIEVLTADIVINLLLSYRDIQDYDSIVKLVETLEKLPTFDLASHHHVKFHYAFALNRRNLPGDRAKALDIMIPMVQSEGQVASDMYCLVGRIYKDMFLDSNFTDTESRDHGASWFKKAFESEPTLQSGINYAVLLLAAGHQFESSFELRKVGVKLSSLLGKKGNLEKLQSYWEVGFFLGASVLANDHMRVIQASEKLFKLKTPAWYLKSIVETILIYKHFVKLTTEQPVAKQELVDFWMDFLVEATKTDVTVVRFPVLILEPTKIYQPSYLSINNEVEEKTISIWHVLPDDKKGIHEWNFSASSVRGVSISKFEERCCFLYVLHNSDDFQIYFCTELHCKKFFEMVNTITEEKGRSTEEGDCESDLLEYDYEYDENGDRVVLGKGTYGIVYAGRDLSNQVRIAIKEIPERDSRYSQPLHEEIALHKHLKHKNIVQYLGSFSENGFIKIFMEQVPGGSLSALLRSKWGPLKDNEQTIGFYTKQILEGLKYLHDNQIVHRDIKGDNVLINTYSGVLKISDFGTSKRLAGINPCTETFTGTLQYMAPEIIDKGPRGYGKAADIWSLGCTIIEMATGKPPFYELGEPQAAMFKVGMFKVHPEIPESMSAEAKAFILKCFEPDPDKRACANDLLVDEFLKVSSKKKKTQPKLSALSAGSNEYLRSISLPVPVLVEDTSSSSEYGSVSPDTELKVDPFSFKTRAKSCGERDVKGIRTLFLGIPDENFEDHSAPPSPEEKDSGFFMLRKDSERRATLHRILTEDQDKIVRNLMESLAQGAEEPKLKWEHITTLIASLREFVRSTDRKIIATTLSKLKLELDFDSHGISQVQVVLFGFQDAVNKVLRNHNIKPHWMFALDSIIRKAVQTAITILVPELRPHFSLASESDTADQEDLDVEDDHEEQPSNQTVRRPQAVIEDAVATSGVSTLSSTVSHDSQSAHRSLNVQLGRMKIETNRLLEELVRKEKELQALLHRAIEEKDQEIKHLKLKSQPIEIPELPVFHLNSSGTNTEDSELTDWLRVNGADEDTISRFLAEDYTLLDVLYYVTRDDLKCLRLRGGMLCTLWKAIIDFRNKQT

[2] = biological target: Cyclin-dependent kinase 16 (Homo sapiens) (UniProt Q00536); test: Selectivity interaction (ActivX KiNativ screen (kinase selectivity in THP-1 cell lysates)) EUB0000639a CDK16; format: subcellular; conditions: lysate
Chain of Cyclin-dependent kinase 16 (Homo sapiens) (Q00536 whole entry): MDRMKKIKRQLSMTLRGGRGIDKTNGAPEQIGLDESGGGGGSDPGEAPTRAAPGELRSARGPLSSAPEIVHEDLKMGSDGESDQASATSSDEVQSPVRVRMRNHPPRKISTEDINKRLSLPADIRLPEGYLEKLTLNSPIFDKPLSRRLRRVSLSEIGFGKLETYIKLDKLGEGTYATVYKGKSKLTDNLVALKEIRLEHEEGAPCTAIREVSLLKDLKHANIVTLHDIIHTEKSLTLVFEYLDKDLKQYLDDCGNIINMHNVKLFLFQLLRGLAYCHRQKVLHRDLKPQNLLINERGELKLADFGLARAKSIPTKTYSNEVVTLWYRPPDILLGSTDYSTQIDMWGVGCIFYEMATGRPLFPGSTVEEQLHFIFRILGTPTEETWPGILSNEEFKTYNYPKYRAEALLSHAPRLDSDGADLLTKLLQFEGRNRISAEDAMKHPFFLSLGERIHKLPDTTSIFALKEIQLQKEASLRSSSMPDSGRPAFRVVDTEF

[3] = biological target: Serine/threonine-protein kinase Nek6 (Homo sapiens) (UniProt Q9HC98); conditions: at 10 µM
Chain of Serine/threonine-protein kinase Nek6 (Homo sapiens) (Q9HC98 whole entry): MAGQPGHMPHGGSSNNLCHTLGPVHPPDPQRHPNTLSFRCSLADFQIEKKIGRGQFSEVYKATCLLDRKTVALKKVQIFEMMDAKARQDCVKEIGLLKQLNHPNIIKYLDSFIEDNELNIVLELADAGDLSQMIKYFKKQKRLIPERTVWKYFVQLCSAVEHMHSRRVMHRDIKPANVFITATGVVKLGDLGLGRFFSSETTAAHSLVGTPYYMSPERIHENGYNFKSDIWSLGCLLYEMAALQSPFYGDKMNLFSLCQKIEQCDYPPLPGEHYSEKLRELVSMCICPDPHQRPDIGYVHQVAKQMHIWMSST

[4] = biological target: Serine/threonine-protein kinase pim-1 (Homo sapiens, UniProt P11309); test: Selectivity interaction (Upstate Kinase Profiler service (Millipore)) EUB0000056c PIM1; conditions: at 1 µM
Chain of Serine/threonine-protein kinase pim-1 (P11309 whole entry, looked up): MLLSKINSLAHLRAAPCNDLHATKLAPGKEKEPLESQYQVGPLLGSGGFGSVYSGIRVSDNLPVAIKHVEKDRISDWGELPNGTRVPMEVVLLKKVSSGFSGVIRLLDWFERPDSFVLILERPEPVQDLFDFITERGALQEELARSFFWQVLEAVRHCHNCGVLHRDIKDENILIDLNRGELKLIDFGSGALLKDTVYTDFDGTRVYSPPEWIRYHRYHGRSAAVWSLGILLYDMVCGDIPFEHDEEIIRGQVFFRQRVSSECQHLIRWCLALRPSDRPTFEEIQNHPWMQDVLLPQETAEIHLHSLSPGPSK

[5] = biological target: Cyclin-dependent kinase 16 (Homo sapiens) (UniProt Q00536); test: Selectivity interaction (KinomeScan (DiscoverX)) EUB0000655a CDK16; conditions: at 10 µM
[6] = biological target: T2, Serine/threonine-protein kinase Nek1 (Homo sapiens) (UniProt Q96PY6); test: Selectivity interaction (Kinase panel (DSF assay)) EUB0001559a NEK1
T2 sequence (whole entry): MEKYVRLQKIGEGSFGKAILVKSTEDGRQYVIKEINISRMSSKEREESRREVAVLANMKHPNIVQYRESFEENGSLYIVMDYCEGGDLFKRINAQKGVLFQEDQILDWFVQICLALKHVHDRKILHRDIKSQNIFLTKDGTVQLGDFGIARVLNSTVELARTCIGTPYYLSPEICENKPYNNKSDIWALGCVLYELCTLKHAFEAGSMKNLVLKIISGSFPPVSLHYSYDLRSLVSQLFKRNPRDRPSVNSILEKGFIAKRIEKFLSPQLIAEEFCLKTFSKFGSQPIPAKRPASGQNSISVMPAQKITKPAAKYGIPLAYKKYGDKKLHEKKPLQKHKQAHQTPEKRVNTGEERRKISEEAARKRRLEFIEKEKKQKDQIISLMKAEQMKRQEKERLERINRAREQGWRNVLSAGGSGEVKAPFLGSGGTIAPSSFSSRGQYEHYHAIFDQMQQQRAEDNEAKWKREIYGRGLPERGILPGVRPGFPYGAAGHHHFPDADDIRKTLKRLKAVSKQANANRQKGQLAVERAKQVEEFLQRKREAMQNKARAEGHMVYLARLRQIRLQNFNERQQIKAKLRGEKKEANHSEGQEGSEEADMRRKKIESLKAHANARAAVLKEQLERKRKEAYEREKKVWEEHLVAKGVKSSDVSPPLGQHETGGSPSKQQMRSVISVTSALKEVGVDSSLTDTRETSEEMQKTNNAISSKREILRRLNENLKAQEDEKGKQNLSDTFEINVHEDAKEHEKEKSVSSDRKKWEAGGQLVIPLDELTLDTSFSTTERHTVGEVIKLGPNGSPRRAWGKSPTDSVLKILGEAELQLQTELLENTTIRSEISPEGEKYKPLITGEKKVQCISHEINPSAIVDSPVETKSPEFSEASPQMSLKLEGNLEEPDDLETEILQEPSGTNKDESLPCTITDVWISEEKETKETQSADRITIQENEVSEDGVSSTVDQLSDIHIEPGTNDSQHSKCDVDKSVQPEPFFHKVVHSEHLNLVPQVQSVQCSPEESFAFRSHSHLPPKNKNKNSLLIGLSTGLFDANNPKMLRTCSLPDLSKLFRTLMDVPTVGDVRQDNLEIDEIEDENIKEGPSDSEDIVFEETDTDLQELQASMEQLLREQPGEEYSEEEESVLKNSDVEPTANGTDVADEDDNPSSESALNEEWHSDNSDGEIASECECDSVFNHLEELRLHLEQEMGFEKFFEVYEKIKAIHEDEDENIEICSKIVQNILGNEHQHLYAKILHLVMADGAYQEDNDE

% of inhibition ([2]; at 0.01 µM): 16.3%
% of inhibition ([2]; at 0.04 µM): 18.2%
% of inhibition ([2]; at 0.2 µM): 8.4%
% of inhibition ([2]; at 1 µM): 15.9%
% of inhibition ([2]; at 5 µM): 47.1%
Compound: CC[C@@H]1[C@H](F)C(=O)N[C@@H]1COc1nccc2cc(C(N)=O)c(OC)cc12 [ZIMLOVISERTIB]

% of inhibition [4]: 89%
Compound: Cc1ccc(-c2ccc3c(ccc4sc5c(c43)NC[C@@H](C)NC5=O)n2)cn1

dTM [6]: 0.4 K
Compound: CN(C(=O)c1cnn2cccnc12)c1cc2c(cc1N1CCOCC1)C(=O)N(C[C@@H](F)C(C)(C)O)C2

Further lines, the compound ahead of its results:

Compound: CN(C)C/C=C/C(=O)Nc1ccc(C(=O)N2CCCC(Nc3ncc(Cl)c(-c4c[nH]c5ccccc45)n3)C2)cc1 (stereo not given)
% of control [1]: 88%

Compound: COCC(=O)NC/C=C/c1ccc2ncnc(Nc3ccc(Oc4ccc(C)nc4)c(C)c3)c2c1 [CP-724714]
% of control [3]: 100%

Compound: CN(C)CCOc1ccc(-c2nc(-c3ccncc3)c(-c3ccc4c(c3)CC/C4=N\O)[nH]2)cc1
% of control [5]: 100%
